IC50 data for 17 compounds are collected here from patent publication US11613527B2, “Enzyme inhibitors” (KalVista Pharmaceuticals Limited, priority 2019, dated 2023).

Common to all, as to assay type: biochemical
In one assay the target is Human plasma kallikrein (Homo sapiens (Human), UniProt P03952). As to the kind of experiment: Determination of the IC50 for plasma kallikrein (fluorogenic substrate H-DPro-Phe-Arg-AFC). The conditions noted are these: class symbols A-D, read-out: IC50 (human PKal). As to the method:
The ability of the compounds of formula (I) to inhibit plasma kallikrein may be determined using the following biological assay:
Determination of the IC50 for Plasma Kallikrein
Plasma kallikrein inhibitory activity in vitro was determined using standard published methods (see e.g. Johansen et al., Int. J. Tiss. Reac. 1986, 8, 185; Shori et al., Biochem. Pharmacol., 1992, 43, 1209; Sturzebecher et al., Biol. Chem. Hoppe-Seyler, 1992, 373, 1025). Human plasma kallikrein (Protogen) was incubated at 25° C. with the fluorogenic substrate H-DPro-Phe-Arg-AFC and various concentrations of the test compound. Residual enzyme activity (initial rate of reaction) was determined by measuring the change in optical absorbance at 410 nm and the IC50 value for the test compound was determined.

The next assay deals with Human KLK1 (Homo sapiens (Human), UniProt P06870). As to the kind of experiment: Determination of the IC50 for KLK1 (fluorogenic substrate H-DVal-Leu-Arg-AFC). As to the method:
Selected compounds were further screened for inhibitory activity against the related enzyme KLK1. The ability of the compounds of formula (I) to inhibit KLK1 may be determined using the following biological assay:
Determination of the IC50 for KLK1
KLK1 inhibitory activity in vitro was determined using standard published methods (see e.g. Johansen et al., Int. J. Tiss. Reac. 1986, 8, 185; Shori et al., Biochem. Pharmacol., 1992, 43, 1209; Sturzebecher et al., Biol. Chem. Hoppe-Seyler, 1992, 373, 1025). Human KLK1 (Callbiochem) was incubated at 25° C. with the fluorogenic substrate H-DVal-Leu-Arg-AFC and various concentrations of the test compound. Residual enzyme activity (initial rate of reaction) was determined by measuring the change in optical absorbance at 410 nm and the IC50 value for the test compound was determined.

The next assay deals with Human FXIa (Homo sapiens (Human), UniProt P03951). As to the kind of experiment: Determination of the % inhibition for FXIa (fluorogenic substrate Z-Gly-Pro-Arg-AFC; 40 μM or IC50). As to the method: Selected compounds were further screened for inhibitory activity against the related enzyme FXIa. The ability of the compounds of formula (I) to inhibit FXIa may be determined using the following biological assay:
Determination of the % Inhibition for FXIa
FXIa inhibitory activity in vitro was determined using standard published methods (see e.g. Johansen et al., Int. J. Tiss. Reac. 1986, 8, 185; Shori et al., Biochem. Pharmacol., 1992, 43, 1209; Sturzebecher et al., Biol. Chem. Hoppe-Seyler, 1992, 373, 1025). Human FXIa (Enzyme Research Laboratories) was incubated at 25° C. with the fluorogenic substrate Z-Gly-Pro-Arg-AFC and 40 μM of the test compound (or alternatively at various concentrations of the test compound in order to determine IC50). Residual enzyme activity (initial rate of reaction) was determined by measuring the change in optical absorbance at 410 nm and the IC50 value for the test compound was determined.

In general, IC50 refers to the concentration needed to halve the response being measured.

Chain of Human plasma kallikrein (P03952 391-638): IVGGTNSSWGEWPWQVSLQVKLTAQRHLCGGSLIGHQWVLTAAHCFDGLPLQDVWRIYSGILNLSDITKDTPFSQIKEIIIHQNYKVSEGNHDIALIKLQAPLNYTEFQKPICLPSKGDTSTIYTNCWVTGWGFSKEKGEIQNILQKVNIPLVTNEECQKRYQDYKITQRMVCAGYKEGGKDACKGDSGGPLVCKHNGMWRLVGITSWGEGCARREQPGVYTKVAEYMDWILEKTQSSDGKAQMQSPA
Chain of Human plasma kallikrein (P03952 20-390 partner): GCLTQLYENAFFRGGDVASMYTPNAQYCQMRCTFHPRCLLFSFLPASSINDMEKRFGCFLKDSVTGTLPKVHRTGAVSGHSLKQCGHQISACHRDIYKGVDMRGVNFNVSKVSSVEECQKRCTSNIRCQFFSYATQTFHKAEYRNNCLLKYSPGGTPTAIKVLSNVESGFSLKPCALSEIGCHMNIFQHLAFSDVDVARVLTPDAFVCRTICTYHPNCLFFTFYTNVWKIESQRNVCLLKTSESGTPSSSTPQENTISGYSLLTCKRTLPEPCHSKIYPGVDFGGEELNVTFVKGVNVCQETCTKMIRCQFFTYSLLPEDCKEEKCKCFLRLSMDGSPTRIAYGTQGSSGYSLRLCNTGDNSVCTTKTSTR
Chain of Human KLK1 (P06870 25-262): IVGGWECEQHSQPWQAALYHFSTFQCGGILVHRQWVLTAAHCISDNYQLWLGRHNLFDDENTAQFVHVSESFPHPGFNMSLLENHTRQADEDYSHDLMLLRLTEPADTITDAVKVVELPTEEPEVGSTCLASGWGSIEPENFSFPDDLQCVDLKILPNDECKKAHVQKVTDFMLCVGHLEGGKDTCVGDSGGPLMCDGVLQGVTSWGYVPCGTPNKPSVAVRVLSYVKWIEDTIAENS
Chain of Human FXIa (P03951 388-625): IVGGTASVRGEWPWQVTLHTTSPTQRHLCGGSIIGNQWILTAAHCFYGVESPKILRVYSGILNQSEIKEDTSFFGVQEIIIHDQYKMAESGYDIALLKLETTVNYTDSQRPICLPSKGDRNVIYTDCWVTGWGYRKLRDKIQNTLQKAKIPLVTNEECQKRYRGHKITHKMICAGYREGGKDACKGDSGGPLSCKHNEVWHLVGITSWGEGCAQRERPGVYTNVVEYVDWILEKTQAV
Chain of Human FXIa (P03951 19-387 partner): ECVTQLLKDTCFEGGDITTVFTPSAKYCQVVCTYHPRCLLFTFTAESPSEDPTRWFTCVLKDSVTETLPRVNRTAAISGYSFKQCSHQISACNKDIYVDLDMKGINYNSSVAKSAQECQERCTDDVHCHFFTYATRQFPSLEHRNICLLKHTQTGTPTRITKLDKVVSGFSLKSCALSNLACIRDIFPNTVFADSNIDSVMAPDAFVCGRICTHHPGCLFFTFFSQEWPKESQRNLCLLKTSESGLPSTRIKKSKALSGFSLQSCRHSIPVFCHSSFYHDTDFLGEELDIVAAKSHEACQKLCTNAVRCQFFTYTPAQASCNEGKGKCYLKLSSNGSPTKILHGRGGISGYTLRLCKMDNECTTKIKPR

In the case of `COCc1nn(Cc2ccc3c(c2)CN(C)CC3)cc1C(=O)NCc1c(-n2nc(C)nc2C)ccc(OC)c1F` [Example 29, N-{[6-(dimethyl-1,2,4-triazol-1-yl)-2-fluoro-3-methoxyphenyl]methyl}-3-(methoxymethyl)-1-[(2-methyl-3,4-dihydro-1H-isoquinolin-7-yl)methyl]pyrazole-4-carboxamide], the IC50 at Human plasma kallikrein is less than 10 nM; at Human KLK1, more than 40 µM; at Human FXIa, more than 40 µM.
Consider `COc1ccc(-n2cnc(C(F)(F)F)n2)c(CNC(=O)c2cnn(Cc3ccc4c(c3)CN(C)CC4)c2)c1F` [Example 31, N-({2-fluoro-3-methoxy-6-[3-(trifluoromethyl)-1,2,4-triazol-1-yl]phenyl}methyl)-1-[(2-methyl-3,4-dihydro-1H-isoquinolin-7-yl)methyl]pyrazole-4-carboxamide], for which the results for the IC50 at Human plasma kallikrein, against Human KLK1 and against Human FXIa were less than 10 nM, more than 40 µM and 34.6 µM, respectively.
On to `COc1ccc(-n2cnc(C(F)(F)F)n2)c(CNC(=O)c2cnn(Cc3ccc4c(c3)CN(C(C)C)CC4)c2)c1F` [Example 32, N-({2-fluoro-3-methoxy-6-[3-(trifluoromethyl)-1,2,4-triazol-1-yl]phenyl}methyl)-1-[(2-isopropyl-3,4-dihydro-1H-isoquinolin-7-yl)methyl]pyrazole-4-carboxamide], for which the values for the IC50 on Human plasma kallikrein, on Human KLK1 and on Human FXIa were less than 10 nM, more than 40 µM and 19.6 µM, respectively.
Taken in the same sequence, the figures for `COCc1nn(Cc2ccc3c(c2)CCN(C2CC2)C3)cc1C(=O)NCc1c(-n2cnc(C(F)F)n2)ccc(OC)c1F` [Example 47, 1-[(2-cyclopropyl-3,4-dihydro-1H-isoquinolin-6-yl)methyl]-N-({6-[3-(difluoromethyl)-1,2,4-triazol-1-yl]-2-fluoro-3-methoxyphenyl}methyl)-3-(methoxymethyl)pyrazole-4-carboxamide] were 30 to 100 nM, more than 40 µM and more than 40 µM.
Turning to `COCc1nn(Cc2ccc3c(c2)CCN(C2CC2)C3)cc1C(=O)NCc1c(-n2cnc(C(F)(F)F)n2)ccc(OC)c1F` [Example 48, 1-[(2-cyclopropyl-3,4-dihydro-1H-isoquinolin-6-yl)methyl]-N-({2-fluoro-3-methoxy-6-[3-(trifluoromethyl)-1,2,4-triazol-1-yl]phenyl}methyl)-3-(methoxymethyl)pyrazole-4-carboxamide], the figures for the IC50 on Human plasma kallikrein, at Human KLK1 and against Human FXIa were 30 to 100 nM, more than 40 µM and more than 40 µM, respectively.
In the case of `COCc1nn(Cc2ccc3c(c2)CCN(C2CC2)C3)cc1C(=O)NCc1c(-n2ccc(C#N)n2)ccc(OC)c1F` [Example 49, N-{[6-(3-cyanopyrazol-1-yl)-2-fluoro-3-methoxyphenyl]methyl}-1-[(2-cyclopropyl-3,4-dihydro-1H-isoquinolin-6-yl)methyl]-3-(methoxymethyl)pyrazole-4-carboxamide], the figures for the half-maximal inhibitory concentration (IC50) at Human plasma kallikrein, at Human KLK1 and against Human FXIa were 10 to 30 nM, more than 40 µM and more than 40 µM, respectively.
Turning to `CCN1CCc2cc(Cn3cc(C(=O)NCc4c(-n5ccc(C#N)n5)ccc(OC)c4F)c(COC)n3)ccc2C1` [Example 52, N-{[6-(3-cyanopyrazol-1-yl)-2-fluoro-3-methoxyphenyl]methyl}-1-[(2-ethyl-3,4-dihydro-1H-isoquinolin-6-yl)methyl]-3-(methoxymethyl)pyrazole-4-carboxamide], the results for the 50% inhibitory concentration (IC50) at Human plasma kallikrein, on Human KLK1 and against Human FXIa were less than 10 nM, more than 40 µM and more than 40 µM, respectively.
For `COCc1nn(Cc2ccc3c(c2)CNC3)cc1C(=O)NCc1c(-n2cc(C)nn2)ccc(OC)c1F` [Example 53, 1-(2,3-dihydro-1H-isoindol-5-ylmethyl)-N-{[2-fluoro-3-methoxy-6-(4-methyl-1,2,3-triazol-1-yl)phenyl]methyl}-3-(methoxymethyl)pyrazole-4-carboxamide], the figures for the IC50 on Human plasma kallikrein, against Human KLK1 and on Human FXIa were 30 to 100 nM, more than 4 µM and more than 4 µM, respectively.
On to `CCN1Cc2ccc(Cn3cc(C(=O)NCc4c(-n5cc(C)nn5)ccc(OC)c4F)c(COC)n3)cc2C1` [Example 56, 1-[(2-ethyl-1,3-dihydroisoindol-5-yl)methyl]-N-{[2-fluoro-3-methoxy-6-(4-methyl-1,2,3-triazol-1-yl)phenyl]methyl}-3-(methoxymethyl)pyrazole-4-carboxamide], for which the IC50 on Human plasma kallikrein is less than 10 nM; on Human KLK1 it was more than 40 µM; against Human FXIa it was 16.3 µM.
For `COCc1nn(Cc2ccc3c(c2)CN(C)C3)cc1C(=O)NCc1c(-n2cnc(C(F)F)n2)ccc(OC)c1F` [Example 57, N-({6-[3-(difluoromethyl)-1,2,4-triazol-1-yl]-2-fluoro-3-methoxyphenyl}methyl)-3-(methoxymethyl)-1-[(2-methyl-1,3-dihydroisoindol-5-yl)methyl]pyrazole-4-carboxamide], the IC50 is less than 10 nM on Human plasma kallikrein, more than 40 µM at Human KLK1 and 28.8 µM on Human FXIa.
Taken in the same sequence, the figures for `COCc1nn(Cc2ccc3c(c2)CN(C)C3)cc1C(=O)NCc1c(-n2cnc(C(F)(F)F)n2)ccc(OC)c1F` [Example 58, N-({2-fluoro-3-methoxy-6-[3-(trifluoromethyl)-1,2,4-triazol-1-yl]phenyl}methyl)-3-(methoxymethyl)-1-[(2-methyl-1,3-dihydroisoindol-5-yl)methyl]pyrazole-4-carboxamide] were less than 10 nM, more than 40 µM and 17 µM.
For `COCc1nn(Cc2ccc3c(c2)CN(C(C)C)C3)cc1C(=O)NCc1c(-n2cnc(C(F)F)n2)ccc(OC)c1F` [Example 59, N-({6-[3-(difluoromethyl)-1,2,4-triazol-1-yl]-2-fluoro-3-methoxyphenyl}methyl)-1-[(2-isopropyl-1,3-dihydroisoindol-5-yl)methyl]-3-(methoxymethyl)pyrazole-4-carboxamide] the same measures were less than 10 nM, more than 40 µM and more than 40 µM.
Regarding `COCc1nn(Cc2ccc3c(c2)CN(C(C)C)C3)cc1C(=O)NCc1c(-n2cnc(C(F)(F)F)n2)ccc(OC)c1F` [Example 60, N-({2-fluoro-3-methoxy-6-[3-(trifluoromethyl)-1,2,4-triazol-1-yl]phenyl}methyl)-1-[(2-isopropyl-1,3-dihydroisoindol-5-yl)methyl]-3-(methoxymethyl)pyrazole-4-carboxamide], the IC50 at Human plasma kallikrein is less than 10 nM; at Human KLK1, more than 40 µM; on Human FXIa it was more than 40 µM.
With `COc1ccc(-n2cc(C)nn2)c(CNC(=O)c2cn(Cc3cn4c(n3)CN(C)CC4)nc2C(F)(F)F)c1F` [Example 61, N-{[2-fluoro-3-methoxy-6-(4-methyl-1,2,3-triazol-1-yl)phenyl]methyl}-1-({7-methyl-5H,6H,8H-imidazo[1,2-a]pyrazin-2-yl}methyl)-3-(trifluoromethyl)pyrazole-4-carboxamide], the IC50 at Human plasma kallikrein was 30 to 100 nM; on Human KLK1, more than 40 µM; against Human FXIa it was more than 40 µM.
As for `COCc1nn(Cc2cnc3c(c2Cl)CCN(C)C3)cc1C(=O)NCc1c(-n2cc(C)nn2)ccc(OC)c1F` [Example 64, 1-[(4-chloro-7-methyl-6,8-dihydro-5H-1,7-naphthyridin-3-yl)methyl]-N-{[2-fluoro-3-methoxy-6-(4-methyl-1,2,3-triazol-1-yl)phenyl]methyl}-3-(methoxymethyl)pyrazole-4-carboxamide], the IC50 on Human plasma kallikrein was 30 to 100 nM; against Human KLK1, more than 40 µM; on Human FXIa, more than 40 µM.
On to `COCc1nn(Cc2ccc3c(c2)CCOC3)cc1C(=O)NCc1c(-n2cc(C)nn2)ccc(OC)c1F` [Example 68, 1-(3,4-dihydro-1H-2-benzopyran-6-ylmethyl)-N-{[2-fluoro-3-methoxy-6-(4-methyl-1,2,3-triazol-1-yl)phenyl]methyl}-3-(methoxymethyl)pyrazole-4-carboxamide], for which the IC50 at Human plasma kallikrein was 10 to 30 nM; on Human KLK1, more than 40 µM; against Human FXIa, more than 40 µM.
As to `COCc1nn(Cc2cc3n(n2)CCN(C)C3)cc1C(=O)NCc1c(-n2cc(C)nn2)ccc(OC)c1F` [Example 70, N-{[2-fluoro-3-methoxy-6-(4-methyl-1,2,3-triazol-1-yl)phenyl]methyl}-3-(methoxymethyl)-1-({5-methyl-4H,6H,7H-pyrazolo[1,5-a]pyrazin-2-yl}methyl)pyrazole-4-carboxamide], the IC50 is 10 to 30 nM at Human plasma kallikrein, more than 40 µM against Human KLK1 and more than 40 µM against Human FXIa.
